Experimental data from PubChem BioAssay AID248 (DTP/NCI, 2004).
Values joined by “and” are separate entries in the source; they are usually repeats but may differ in a detail not shown here. Identical values can stand only once. Toxic doses and inconclusive results are not listed. Rule as the data show it: active = T/C of 150% or more; inactive = T/C below 125%.

System: L1210 leukemia ip in BDF1 mice, survival T/C
Assay: NCI In Vivo Anticancer Drug Screen. Data for tumor model L1210 Leukemia (intraperitoneal) in B6D2F1 (BDF1) mice
Conditions: endpoint: mean survival time, higher = longer survival
Summary of the method: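 Mice bearing the transplanted tumor received compound or vehicle. Survival of the treated group was divided by that of the vehicle-treated control group to give the ratio.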

[1] = dose: 12.5 mg/kg/injection, schedule: Q01DX001 (ip), vehicle: saline
[2] = dose: 25.0 mg/kg/injection, schedule: Q01DX001 (ip), vehicle: saline
[3] = dose: 25.0 mg/kg/injection, schedule: Q04DX003 (ip), vehicle: saline
[4] = dose: 100.0 mg/kg/injection, schedule: Q04DX003 (ip), vehicle: Klucel (hydroxypropylcellulose) (HPC)
[5] = dose: 100.0 mg/kg/injection, schedule: Q01DX009 (ip), vehicle: Klucel (hydroxypropylcellulose) (HPC)
[6] = dose: 200.0 mg/kg/injection, schedule: Q01DX009 (ip), vehicle: Klucel (hydroxypropylcellulose) (HPC)
[7] = dose: 50.0 mg/kg/injection, schedule: Q01DX001 (ip), vehicle: saline
[8] = dose: 100.0 mg/kg/injection, schedule: Q01DX001 (ip), vehicle: saline
[9] = dose: 200.0 mg/kg/injection, schedule: Q01DX001 (ip), vehicle: saline
[10] = dose: 150.0 mg/kg/injection, schedule: Q01DX001 (ip), vehicle: saline
[11] = dose: 400.0 mg/kg/injection, schedule: Q01DX001 (ip), vehicle: saline
[12] = dose: 100.0 mg/kg/injection, schedule: Q01DX009 (ip), vehicle: saline

Measured: T/C

CCCCCCCCCCCCCCCC[N+](C)(C)C
inactive: dose: 0.93 mg/kg/injection, schedule: Q04DX003 (ip), vehicle: saline 97 % of control | dose: 1.09 mg/kg/injection, schedule: Q01DX009 (ip), vehicle: saline 100 % of control | dose: 1.87 mg/kg/injection, schedule: Q01DX009 (ip), vehicle: saline 92 % of control | dose: 1.87 mg/kg/injection, schedule: Q04DX003 (ip), vehicle: saline 106 % of control | dose: 2.0 mg/kg/injection, schedule: Q01DX015 (ip), vehicle: saline 94 % of control | dose: 2.18 mg/kg/injection, schedule: Q01DX009 (ip), vehicle: saline 100 % of control | dose: 3.75 mg/kg/injection, schedule: Q01DX009 (ip), vehicle: saline 92 % of control | dose: 3.75 mg/kg/injection, schedule: Q04DX003 (ip), vehicle: saline 95 % of control | dose: 4.0 mg/kg/injection, schedule: Q01DX015 (ip), vehicle: saline 95 % of control | dose: 4.37 mg/kg/injection, schedule: Q01DX009 (ip), vehicle: saline 91 % of control | dose: 6.25 mg/kg/injection, schedule: Q04DX003 (ip), vehicle: saline 101 % of control | dose: 7.5 mg/kg/injection, schedule: Q01DX009 (ip), vehicle: saline 92 % of control | dose: 7.5 mg/kg/injection, schedule: Q04DX003 (ip), vehicle: saline 90 % of control | dose: 11.0 mg/kg/injection, schedule: Q01DX009 (ip), vehicle: saline 113 % of control | [1] 95 % of control | dose: 12.5 mg/kg/injection, schedule: Q04DX003 (ip), vehicle: saline 105 % of control | [2] 98 % of control | dose: 25.0 mg/kg/injection, schedule: Q04DX003 (ip), vehicle: carboxymethylcellulose (CMC) 105 % of control | [3] 90 % of control | dose: 35.0 mg/kg/injection, schedule: Q04DX003 (ip), vehicle: saline 88 % of control | dose: 50.0 mg/kg/injection, schedule: Q04DX003 (ip), vehicle: carboxymethylcellulose (CMC) 100 % of control | [4] 103 % of control

CCCCN(CCCC)CCCNC(=S)Nc1ccccc1
inactive: [5] 94 % of control | [6] 100 % of control

OCC1CC(n2cnc3c(=S)nc[nH]c32)C(O)C1O (stereo not given)
inactive: [7] 96 % of control | [8] 96 % of control | [9] 96 % of control

C[N+](C)(C)CCC[N+](C)(C)CCN1C(=O)c2cccc3cccc(c23)C1=O
inactive: dose: 6.25 mg/kg/injection, schedule: Q01DX001 (ip), vehicle: saline 103 % of control | [1] 103 % of control | [2] 103 % of control | [7] 101 % of control

COc1ccc(OC)c(/C=C(C(=O)O)/C(=C/c2cc(OC)ccc2OC)C(=O)O)c1
inactive: dose: 100.0 mg/kg/injection, schedule: Q04DX003 (ip), vehicle: saline with Tween-80 105 % of control | dose: 200.0 mg/kg/injection, schedule: Q04DX003 (ip), vehicle: saline with Tween-80 102 % of control | dose: 400.0 mg/kg/injection, schedule: Q04DX003 (ip), vehicle: saline with Tween-80 97 % of control

C/C(=N/OC(=O)N(C)C)c1cccc(Cl)c1
inactive: dose: 44.0 mg/kg/injection, schedule: Q01DX001 (ip), vehicle: saline 95 % of control and 103 % of control | dose: 66.0 mg/kg/injection, schedule: Q01DX001 (ip), vehicle: saline 95 % of control and 101 % of control | [8] 94 % of control and 95 % of control | [10] 101 % of control and 112 % of control | [9] 97 % of control | [11] 103 % of control

Clc1ccc(C2OCCO2)c(Cl)c1
inactive: [8] 97 % of control | [9] 92 % of control | [11] 87 % of control

COc1ccc(NC(=O)COc2ccccc2Br)cc1
inactive: [5] 95 % of control | [4] 101 % of control | [6] 97 % of control | dose: 200.0 mg/kg/injection, schedule: Q04DX003 (ip), vehicle: Klucel (hydroxypropylcellulose) (HPC) 96 % of control | dose: 400.0 mg/kg/injection, schedule: Q01DX009 (ip), vehicle: Klucel (hydroxypropylcellulose) (HPC) 93 % of control | dose: 400.0 mg/kg/injection, schedule: Q04DX003 (ip), vehicle: Klucel (hydroxypropylcellulose) (HPC) 93 % of control

Cc1ccccc1[P+](Cc1ccccc1)(c1ccccc1)c1ccccc1C
inactive: dose: 15.0 mg/kg/injection, schedule: Q01DX001 (ip), vehicle: saline 104 % of control

Nc1ncc(-c2ccc(Br)cc2)s1
inactive: dose: 12.5 mg/kg/injection, schedule: Q01DX005 (ip), vehicle: Klucel (hydroxypropylcellulose) (HPC) 100 % of control | dose: 12.5 mg/kg/injection, schedule: Q01DX009 (ip), vehicle: Klucel (hydroxypropylcellulose) (HPC) 105 % of control | dose: 25.0 mg/kg/injection, schedule: Q01DX005 (ip), vehicle: Klucel (hydroxypropylcellulose) (HPC) 107 % of control | dose: 25.0 mg/kg/injection, schedule: Q01DX009 (ip), vehicle: Klucel (hydroxypropylcellulose) (HPC) 97 % of control | dose: 50.0 mg/kg/injection, schedule: Q01DX005 (ip), vehicle: Klucel (hydroxypropylcellulose) (HPC) 91 % of control | dose: 50.0 mg/kg/injection, schedule: Q01DX009 (ip), vehicle: Klucel (hydroxypropylcellulose) (HPC) 97 % of control | dose: 75.0 mg/kg/injection, schedule: Q01DX009 (ip), vehicle: Klucel (hydroxypropylcellulose) (HPC) 97 % of control | dose: 100.0 mg/kg/injection, schedule: Q04DX002 (ip), vehicle: Klucel (hydroxypropylcellulose) (HPC) 102 % of control | dose: 115.0 mg/kg/injection, schedule: Q01DX009 (ip), vehicle: Klucel (hydroxypropylcellulose) (HPC) 92 % of control | dose: 170.0 mg/kg/injection, schedule: Q01DX009 (ip), vehicle: Klucel (hydroxypropylcellulose) (HPC) 116 % of control | dose: 200.0 mg/kg/injection, schedule: Q04DX002 (ip), vehicle: Klucel (hydroxypropylcellulose) (HPC) 102 % of control | dose: 400.0 mg/kg/injection, schedule: Q04DX002 (ip), vehicle: Klucel (hydroxypropylcellulose) (HPC) 88 % of control

Oc1cc2c(cc1O)CN1CCc3cc(O)c(O)cc3C1C2 (stereo not given)
inactive: dose: 75.0 mg/kg/injection, schedule: Q01DX001 (ip), vehicle: saline 103 % of control | [10] 105 % of control | dose: 300.0 mg/kg/injection, schedule: Q01DX001 (ip), vehicle: saline 93 % of control

[O]=[Cr](=[O])([OH])[O][Cr](=[O])(=[O])[OH]
inactive: dose: 6.25 mg/kg/injection, schedule: Q01DX009 (ip), vehicle: saline 104 % of control | dose: 12.5 mg/kg/injection, schedule: Q01DX009 (ip), vehicle: saline 97 % of control | [3] 108 % of control

CCCCN(C)N=Nc1ccc(C(=N)N)cc1
inactive: dose: 5.0 mg/kg/injection, schedule: Q01DX001 (ip), vehicle: carboxymethylcellulose (CMC) 106 % of control | dose: 10.0 mg/kg/injection, schedule: Q01DX001 (ip), vehicle: carboxymethylcellulose (CMC) 100 % of control | dose: 20.0 mg/kg/injection, schedule: Q01DX001 (ip), vehicle: carboxymethylcellulose (CMC) 100 % of control | dose: 40.0 mg/kg/injection, schedule: Q01DX001 (ip), vehicle: carboxymethylcellulose (CMC) 95 % of control | dose: 80.0 mg/kg/injection, schedule: Q01DX001 (ip), vehicle: carboxymethylcellulose (CMC) 101 % of control

C[n+]1ccccc1SC12CC3CC(CC(C3)C1)C2
inactive: dose: 10.0 mg/kg/injection, schedule: Q01DX009 (ip), vehicle: Klucel (hydroxypropylcellulose) (HPC) 113 % of control

CN1CCC=C(C(=O)N2c3ccccc3Sc3ccccc32)C1
inactive: dose: 25.0 mg/kg/injection, schedule: Q01DX009 (ip), vehicle: saline 88 % of control | [3] 97 % of control | dose: 50.0 mg/kg/injection, schedule: Q01DX009 (ip), vehicle: saline 96 % of control | dose: 50.0 mg/kg/injection, schedule: Q04DX003 (ip), vehicle: saline 96 % of control | [12] 102 % of control | dose: 100.0 mg/kg/injection, schedule: Q04DX003 (ip), vehicle: saline 96 % of control and 105 % of control

CCCC(CCC)=NCCN=C(CCC)CCC
inactive: [12] 97 % of control | dose: 200.0 mg/kg/injection, schedule: Q01DX009 (ip), vehicle: saline 94 % of control

O=[N+]([O-])c1ccc(C=C2C=c3ccccc3=C2)cc1
inactive: dose: 12.5 mg/kg/injection, schedule: Q04DX003 (ip), vehicle: Klucel (hydroxypropylcellulose) (HPC) 94 % of control | dose: 25.0 mg/kg/injection, schedule: Q04DX003 (ip), vehicle: Klucel (hydroxypropylcellulose) (HPC) 96 % of control | dose: 50.0 mg/kg/injection, schedule: Q04DX003 (ip), vehicle: Klucel (hydroxypropylcellulose) (HPC) 97 % of control
